Data reported in US7452693B2, “Discrete acyltransferases associated with type I polyketide synthases and methods of use” (Wisconsin Alumni Research Foundation, priority 2001, dated 2008).

Legend:
[1] = tested on: HELA S3, sarcoma 180, B-16, Colon 26, and leukemia P388; conditions: cited from earlier work
S. atroolivaceus = test: Growth inhibition of S. atroolivaceus by antibiotics; format: cell-based, Streptomyces atroolivaceus; conditions: for concentration for complete inhibition of growth: S. atroolivaceus; for sensitivity of S. atroolivaceus: in words
Experimental: S. atroolivaceus grows very well at 30° C.; it doesn't grow at temperature beyond 35° C. […] Thus, E. coli—Streptomyces shuttle vectors pOJ260 (suicide vector, Am^R) and pKC1139 (self-replicating vector, Am^R) were chosen to make the gene-disruption constructs pYC12 and pYC20, respectively. The concentration of antibiotic (Am) for selection of transformants/exconjugates is 50 μg/ml.

## C/C1=C\[C@@H](O)C(=O)/C=C/C=C\c2csc(n2)[C@@H](C)NC(=O)C[C@@]2(CC1)[S+]([O-])SC(=O)[C@]2(C)O (stereo partly shown) [Lnm, Leinamycin]
[1]; murine models inoculated with tumors resistant to cisplatin, doxorubicin, mitomycin, or cyclophosphamide
  activity against drug-resistant tumors: active
[1]; murine tumor models in vivo
  antitumor activity: potent antitumor activity

## CN[C@@H]1[C@@H](O[C@H]2O[C@H](CO)[C@@H](N)[C@H](O)[C@H]2O)OC2C[C@@H](N)[C@@H](O[C@H]3[C@H](O)[C@@H](O)[C@H](N)C[C@@H]3N)OC2[C@@H]1O (stereo partly shown) [apramycin]
S. atroolivaceus
  concentration for complete inhibition of growth: 10 µg/mL
  sensitivity of S. atroolivaceus: sensitive
S. atroolivaceus; listed as apromycin
  sensitivity of S. atroolivaceus: highly sensitive

## C=C(NC(=O)C(=C)NC(=O)c1csc(C2=N[C@@H]3c4csc(n4)[C@H]4NC(=O)c5csc(n5)[C@H]([C@](C)(O)[C@@H](C)O)NC(=O)[C@H]5CSC(=N5)/C(=C/C)NC(=O)[C@H]([C@@H](C)O)NC(=O)c5csc(n5)[C@]3(CC2)NC(=O)[C@H](C)NC(=O)C(=C)NC(=O)[C@H](C)NC(=O)[C@H]([C@@H](C)CC)N[C@@H]2C=Cc3c([C@H](C)O)cc(nc3[C@H]2O)C(=O)O[C@@H]4C)n1)C(N)=O [thiostrepton]
S. atroolivaceus
  concentration for complete inhibition of growth: 3 µg/mL
  sensitivity of S. atroolivaceus: highly sensitive
